According to US8124766B2, “Inhibitors of diacylglycerol acyltransferase” (Madrigal Pharmaceuticals, Inc., priority 2008, dated 2012):
Where a name gives a salt, the structure may show the parent alone.

tested on: DGAT; assay: DGAT Phospholipid FlashPlate Assay; type: biochemical; settings: DGAT pellet, DAG-coated PL-FlashPlate, 14C-Pal-CoA, 37° C. for 1 hour; read-out: DGAT Inhibition Activity IC50
Experimental: DGAT Phospholipid FlashPlate Assay
Materials for the assay were: PL-FlashPlate: Phospholipid FlashPlates from PerkinElmer, catalog number SMP108; DAG (1,2-Dioleoyl-sn-glycerol) 10 mM suspended in water containing 0.1% Triton X-100; ^14C-Pal-CoA (palmitoyl coenzyme A, [palmitoyl-1-^14C]) from PerkinElmer, catalog number NEC-555 with a specific activity of 55 mCi/mmol; and DGAT pellet, with a protein concentration of 9.85 mg/ml.
Aqueous buffers were prepared or purchased as follows: The coating buffer (CB) was purchased from PerkinElmer, catalog number SMP900A; the reaction buffer (RB) was 50 mM Tris-HCl, pH 7.5, 100 mM NaCl, 0.01% BSA in water; the washing buffer (WB) is 50 mM Tris-HCl, pH 7.5, 100 mM NaCl, 0.05% deoxycholic acid sodium salt in water; the dilution buffer (DB) was 50 mM Tris-HCl, pH 7.5, 100 mM NaCl, 1 mM EDTA, 0.2% Triton X-100 in water.
1,2-Dioleoyl-sn-glycerol (DAG, 10 mmoles) was diluted to 500 μM with coating buffer (CB). The diluted DAG solution was then added to 384-well PL-FlashPlates at 60 μl per well, and incubated at room temperature for 2 days. The coated plates were then washed twice with washing buffer (WB) before use. Test compounds were serial diluted to 2000, 666.7, 222.2, 74.1, 24.7, 8.2, 2.7 and 0.9 μM in 100% DMSO. Diluted compound were further diluted 10 fold with reaction buffer (RB). ^14C-Pal-CoA was diluted to 8.3 μM with RB. The DGAT pellet was diluted to 0.13 mg protein/ml with dilution buffer (DB) immediately before it was added to the PL-FlashPlates to start the reaction. 20 μl of the RB-diluted compounds (or 10% DMSO in RB for Total and Blank), 15 μl of RB diluted 14C-Pal-CoA and 15 μl of DB diluted DGAT pellet (DB without DGAT for Blanks) were transferred to each well of the PL-FlashPlates. The reaction mixtures were incubated at 37° C. for 1 hour. The reactions were stopped by washing 3 times with WB. Plates were sealed with Top-seal and read on a Topcount instrument.
Calculation of IC50: The IC50 values for each compound were generated using an Excel template. The Topcount rpm readings of Total and Blank were used as 0% and 100% inhibition. The percent inhibition values of reactions in the presence of compounds were calculated, and plotted against compound concentrations. All data were fitted into a Dose Response One Site model (4 parameter logistic model) as the following: (A+((B−A)/(1+((x/C)^D)))), with A and B as the bottom and top of the curve (highest and lowest inhibition), respectively, and C as IC50 and D as Hill Coefficient of the compound.

IC50 | SMILES
247 nM | CCn1c(C(=O)Nc2ccc(N[C@H]3CCN(C(=O)NC(C)(C)C)C3)nc2)cc2c(C)cccc21 [Example 58, 1-Ethyl-4-methyl-1H-indole-2-carboxylic acid [6-((8)-1-tert-butylcarbamoyl-pyrrolidin-3-ylamino)-pyridin-3-yl]-amide hydrochloride]
414 nM | CCOC(=O)N1CC[C@H](Nc2ccc(NC(=O)c3cc4c(OCC)cccc4n3CC)cn2)C1 [Example 55, (S)-3-{5-[(4-Ethoxy-1-ethyl-1H-indole-2-carbonyl)-amino]-pyridin-2-ylamino}-pyrrolidine-1-carboxylic acid ethyl ester hydrochloride]
127 nM | CC(C)(CC(=O)N1CCC(c2ccc(NC(=O)c3cc4c(Cl)cccc4s3)cc2)CC1)C(=O)O [Example 25, 4-(4-{4-[(4-Chloro-benzo[b]thiophene-2-carbonyl)-amino]-phenyl}-piperidin-1-yl)-2,2-dimethyl-4-oxo-butyric acid]
189 nM | CCOc1cccc2c1cc(C(=O)Nc1ccc(N3CCN(C(=O)CC(C)(C)C(=O)O)CC3)nc1)n2CC [Example 6, 4-(4-{5-[(4-Ethoxy-1-ethyl-1H-indole-2-carbonyl)-amino]-pyridin-2-yl}-piperazin-1-yl)-2,2-dimethyl-4-oxo-butyric acid]
145 nM | CC(C)(CC(=O)N1CCN(c2ccc(NC(=O)c3cc4c(Cl)cccc4s3)cc2)CC1)C(=O)O [Example 26, 4-(4-{4-[(4-Chloro-benzo[b]thiophene-2-carbonyl)-amino]-phenyl}-piperazin-1-yl)-2,2-dimethyl-4-oxo-butyric acid]
58 nM | COc1cccc2c(C)c(C(=O)Nc3ccc(N4CCN(C(=O)[C@H]5CC[C@H](C(=O)O)CC5)CC4)cc3)[nH]c12 [Example 76, trans-4-(4-{4-[(7-Methoxy-3-methyl-1H-indole-2-carbonyl)-amino]-phenyl}-piperazine-1-carbonyl)-cyclohexanecarboxylic acid]
32 nM | CC(C)(CC(=O)N1CCN(c2ccc(NC(=O)c3cc4c(Cl)cccc4s3)cn2)CC1)C(=O)O [Example 2, 4-(4-{5-[(4-Chloro-benzo[b]thiophene-2-carbonyl)-amino]-pyridin-2-yl}-piperazin-1-yl)-2,2-dimethyl-4-oxo-butyric acid]
312 nM | CCn1c(C(=O)Nc2ccc(N(C)CCOC)nc2)cc2cc(OC)ccc21 [Example 39, 1-Ethyl-5-methoxy-1H-indole-2-carboxylic acid {6-[(2-methoxy-ethyl)-methyl-amino]pyridin-3-yl}-amide hydrochloride]
385 nM | CCn1c(C(=O)Nc2ccc(N3CCN(C(=O)[C@H]4CC[C@H](C(=O)O)CC4)CC3)nc2)cc2c(OC)cccc21 [Example 28, trans-4-(4-{5-[(1-Ethyl-4-methoxy-1H-indole-2-carbonyl)-amino]-pyridin-2-yl}-piperazine-1-carbonyl)-cyclohexanecarboxylic acid]
303 nM | CCOC(=O)N1CC[C@H](Nc2ccc(NC(=O)c3cc4cc(Br)ccc4s3)cn2)C1 [Example 46, (S)-3-{5-[(5-Bromo-benzo[b]thiophene-2-carbonyl)-amino]pyridin-2-ylamino}-pyrrolidine-1-carboxylic acid ethyl ester hydrochloride]
662 nM | CCn1c(C(=O)Nc2ccc(N(C)CCOC)nc2)cc2cc(OC(F)(F)F)ccc21 [Example 33, 1-Ethyl-5-trifluoromethoxy-1H-indole-2-carboxylic acid {6-[(2-methoxy-ethyl)-methyl-amino]-pyridin-3-yl}-amide hydrochloride]
292 nM | CC(C)(C)OC(=O)N1CCN(c2ccc(NC(=O)c3cc4c(Cl)cccc4s3)cn2)CC1 [Example 1, 4-{5-[(4-Chloro-benzo[b]thiophene-2-carbonyl)-amino]-pyridin-2-yl}-piperazine-1-carboxylic acid tert-butyl ester]
495 nM | CCOc1cccc2c1cc(C(=O)Nc1ccc(C3CCN(C(=O)[C@@H]4CCC[C@H]4C(=O)O)CC3)cc1)n2CC [Example 32, (1R,2R)-2-(4-{4-[(4-Ethoxy-1-ethyl-1,1-indole-2-carbonyl)-amino]-phenyl}-piperidine-1-carbonyl)-cyclopentanecarboxylic acid]
57 nM | COc1cccc2c(C)c(C(=O)Nc3ccc(C4CCN(C(=O)[C@H]5CC[C@H](C(=O)O)CC5)CC4)cc3)[nH]c12 [Example 77, trans-4-(4-{4-[(7-Methoxy-3-methyl-1H-indole-2-carbonyl)-amino]phenyl}-piperidine-1-carbonyl)-cyclohexanecarboxylic acid]
489 nM | CCOc1cccc2c1cc(C(=O)Nc1ccc(N3CCN(C(=O)CC(C)(C)C(=O)O)CC3)cc1)n2CC [Example 44, 4-(4-{4-[(4-Ethoxy-1-ethyl-1H-indole-2-carbonyl)-amino]-phenyl}-piperazin-1-yl)-2,2-dimethyl-4-oxo-butyric acid]
333 nM | CCn1c(C(=O)Nc2ccc(C3CCN(C(=O)CC(C)(C)C(=O)O)CC3)cc2)cc2c(Cl)c(Cl)ccc21 [Example 9, 4-(4-{4-[(4,5-Dichloro-ethyl-1H-indole-2-carbonyl)-amino]-phenyl}-piperidin-1-yl)-2,2-dimethyl-4-oxo-butyric acid]
328 nM | CCCOc1cccc2c1cc(C(=O)Nc1ccc(N3CCN(C(=O)OC(C)(C)C)CC3)nc1)n2CC [Example 10, 4-{5-[(1-Ethyl-4-propoxy-1,1-indole-2-carbonyl)-amino]-pyridin-2-yl}-piperazine-1-carboxylic acid tert-butyl ester]
209 nM | CCOC(=O)N1CC[C@H](Nc2ccc(NC(=O)c3cc4c(C)cccc4n3CC)cn2)C1 [Example 53, (S)-3-{5-[(1-Ethyl-4-methyl-1H-indole-2-carbonyl)-amino]-pyridin-2-ylamino}-pyrrolidine-1-carboxylic acid ethyl ester hydrochloride]
826 nM | CCn1c(C(=O)Nc2ccc(N3CCN(C(=O)[C@H]4CC[C@H](C(=O)OCc5ccccc5)CC4)CC3)nc2)cc2c(OC)cccc21 [Example 27, trans-4-(4-{5-[(1-Ethyl-4-methoxy-1H-indole-2-carbonyl)-amino]-pyridin-2-yl}-piperazine-1-carbonyl)-cyclohexanecarboxylic acid benzyl ester]
255 nM | CCn1c(C(=O)Nc2ccc(N3CCN(C(=O)OC(C)(C)C)CC3)nc2)cc2c(Cl)c(Cl)ccc21 [Example 18, 4-{5-[(4,5-Dichloro-1-ethyl-1H-indole-2-carbonyl)-amino]-pyridin-2-yl}-piperazine-1-carboxylic acid tert-butyl ester]
790 nM | CCn1c(C(=O)Nc2ccc(C3CCN(C(=O)CC(C(=O)O)c4ccccc4)CC3)cc2)cc2c(Cl)c(Cl)ccc21 (stereo not shown) [Example 61, 4-(4-{4-[(4,5-Dichloro-1-ethyl-1H-indole-2-carbonyl)-amino]-phenyl}-piperidin-1-yl)-4-oxo-2-phenyl-butyric acid]
85 nM | CC(C)(CC(=O)N1CCN(c2ccc(NC(=O)c3cc4cc(Br)ccc4s3)cn2)CC1)C(=O)O [Example 4, 4-(4-{5-[(5-Bromo-benzo[b]thiophene-2-carbonyl)-amino]-pyridin-2-yl}-piperazin-1-yl)-2,2-dimethyl-4-oxo-butyric acid]
425 nM | CCn1c(C(=O)Nc2ccc(N(C)CCOC)nc2)cc2ccccc21 [Example 37, 1-Ethyl-1H-indole-2-carboxylic acid {6-[(2-methoxy-ethyl)-methyl-amino]-pyridin-3-yl}-amide hydrochloride]
372 nM | COc1cccc2c(C)c(C(=O)Nc3ccc(N4CCN(C(=O)[C@H]5CCC[C@@H]5C(=O)O)CC4)cc3)[nH]c12 [Example 75, (1S,2S)-2-(4-{4-[(7-Methoxy-3-methyl-1H-indole-2-carbonyl)-amino]-phenyl}-piperazine-1-carbonyl)-cyclopentanecarboxylic acid]
528 nM | CCn1c(C(=O)Nc2ccc(C3CCN(C(=O)CC(C)(C)C(=O)O)CC3)cc2)cc2c(C)cccc21 [Example 8, 4-(4-{4-[(1-Ethyl-4-methyl-4H-indole-2-carbonyl)-amino]-phenyl}-piperidin-1-yl)-2,2-dimethyl-4-oxo-butyric acid]
